Results from US20170204126A1, “MOLYBDENUM- AND TUNGSTEN-CONTAINING PRECURSORS FOR THIN FILM DEPOSITION” (L'Air Liquide, Société Anonyme pour l'Etude et …, priority 2014, published 2017).

What was measured:
[1] = Thermal Stability Test (storage at 50° C.); type: physicochemical
Experimental: The product was stored at 50° C. for 14 and 44 days. The W(OsBu)6 content after 14 days was 1.1 atomic %. The W(OsBu)6 content after 44 days was 1.2 atomic %.

[2] = Solubility of the compound in common solvents; conditions: for Solubility in alkanes and toluene: at room temperature
Experimental: Measurement Conditions: • Sample weight: 26.00 mg • Atmosphere: Nitrogen, 1 atmospheric pressure • Heating rate: 10° C.·min^−1 • Solubility of the compound in common solvents
Measurement Conditions: • Sample weight: 24.57 mg • Atmosphere: Nitrogen, 1 atmospheric pressure • Heating rate: 10° C.·min^−1 • Solubility of the compound in common solvents
Measurement Conditions: • Sample weight: 21.19 mg • Atmosphere: Nitrogen, 1 atmospheric pressure • Heating rate: 10° C.·min^−1 • Solubility of the compound in common solvents
Measurement Conditions: • Sample weight: 23.09 mg • Atmosphere: Nitrogen, 1 atmospheric pressure • Heating rate: 10° C.·min^−1 • Solubility of the compound in common solvents
Measurement Conditions: • Sample weight: 19.79 mg • Atmosphere: Nitrogen, 1 atmospheric pressure • Heating rate: 10° C.·min^−1 • Solubility of the compound in common solvents
Measurement Conditions: • Sample weight: 27.43 mg • Atmosphere: Nitrogen, 1 atmospheric pressure • Heating rate: 10° C.·min^−1 • Solubility of the compound in common solvents

tungsten oxo sec-butoxide [W(═O)(OsBu)4]
W(OsBu)6 content after storage ([1]; stored at 50° C. for 14 days): 1.1 atomic %
W(OsBu)6 content after storage ([1]; stored at 50° C. for 44 days): 1.2 atomic %

CCCC[O][W](=[O])([O]CCCC)([O]CCCC)[O]CCCC [W(═O)(OnBu)4]
Solubility in alkanes and toluene [2]: very low solubility

CC(C)C[O][W](=[O])([O]CC(C)C)([O]CC(C)C)[O]CC(C)C [W(═O)(OiBu)4, W(═O)(OCH2CH(CH3)2)4]
Solubility in alkanes and in toluene ([2]; toluene up to 80° C.): very low solubility

CC(C)C(C)[O][W](=[O])([O]C(C)C(C)C)([O]C(C)C(C)C)[O]C(C)C(C)C (stereo not shown) [W(═O)(OCH(CH3)(CH(CH3)2))4]
Vapor pressure (Vapor pressure; at 147° C.): 1 Torr
Solubility in common organic solvents ([2]; hexane, acetone, chloroform, and/or toluene): miscible

CC(C)[O][W](=[O])([O]C(C)C)([O]C(C)C)[O]C(C)C [W(═O)(OiPr)4, W(═O)(OCH(CH3)2)4]
Vapor pressure (Vapor pressure; at 103° C.): 1 Torr
Solubility in alkanes ([2]; alkanes): very low solubility
Solubility in toluene ([2]; toluene at 60° C.): soluble

CCC[O][W](=[O])([O]CCC)([O]CCC)[O]CCC [W(═O)(OnPr)4]
Solubility in alkanes and toluene [2]: very low solubility
